Measured values as given in paper PMC6036970, “Natural and redesigned wasp venom peptides with selective antitumoral activity” (Beilstein Journal of Organic Chemistry, 2018).
Where no end group is shown, it is not given here.

What was measured:
[1] = tested on: MCF-7 breast cancer cells; test: MTT cytotoxicity assay on MCF-7 cancer cells; type: cell-based; details: for IC50 against MCF-7 / IC50: MCF-7, 24 h, read at 570 nm; for IC50 against MCF-7 / IC50 / LD50 / concentration achieving >50% of cancer cell lysis: MTT, triplicate; for effect on cell viability 2 h post-exposure: after 2 h; for inhibition of cancer cell growth: dose of ≈50 μmol L^−1; for inhibition of cell viability: 50 μmol L^−1 after 2 h; for IC50: read-out: IC50 against MCF-7; for LD50 / concentration achieving >50% of cancer cell lysis: MCF-7, after 24 h
Description: (§1) MCF-7 cells (ATCC) were maintained in RPMI 1640 medium supplemented with 10% heat inactivated FBS and 100 μg mL^−1 penicillin/10 μg mL^−1 streptomycin. One day before the assays, the cells were plated in 96-well microtiter plates with a density of 2.0 × 10^4 cells/well at 37 °C and 5% CO2. On the next day, cells were treated with peptides serial dilutions (0.09–50 μmol L^–1), incubated in individual microtiter plates for 2 and 24 h and MTT assays were performed after treatment. Human breast epithelial cells MCF-10A (ATCC) were maintained in a mixture of Dulbecco’s Modified Eagle’s Medium and Ham’s F12 nutrient mixture supplemented with 5% inactivated horse serum, 10 μg mL^−1 insulin, 0.02 μg mL^−1 human epidermal growth factor, 0.5 μg mL^−1 hydrocortisone, 0.10 μg mL^−1 choleric toxin, 100 U mL^−1 penicillin, and 100 μg mL^−1 streptomycin. The cells were preincubated for 24 h, plated in 96-well microtiter plates with a density of 2.0 × 10^4 cells/well at 37 °C and 5% CO2. On the next day, cells were treated with peptides serial dilutions (25 to 100 μmol L^−1), incubated in individual microtiter plates for 4 and 24 h and MTT assay was performed after treatment. Experiments were performed in triplicate.
(§2) Briefly, MTT (Sigma-Aldrich) was dissolved in water and filtered to make up a […] solution. 30 μL of this solution were added to all the wells which already contained peptide-treated cells and kept at 37 °C for 45 minutes. Subsequently, the solution was discarded and replaced with 150 μL/well of DMSO and followed by gentle shaking for 15 minutes. Finally, the microplates were read on an ELISA reader at 570 nm. Experiments were performed in triplicate.

human red blood cells = details: ref Torres et al. [9]–[10]; cited from earlier work
From the text: Table 1 Theoretical physicochemical properties and hemolytic activity of decoralin and its synthetic analogs.^a

MCF-10A normal cells = test: MTT cytotoxicity assay on MCF-10A normal cells; type: cell-based, human; details: for cytotoxicity against MCF-10A normal cells: up to higher concentrations (≈100 μmol L^−1)
Description: as §1, §2

MCF-7 cells = test: AFM measurement of cell membrane roughness; type: cell-based; details: MCF-7, 50 μmol L^−1, 24 h, AFM contact mode, Ra and Rq
Description: The AFM imaging of MCF-7 cells untreated (control) and treated with peptide (50 μmol L^−1 solutions of Dec-NH2 and [Leu]^8-Dec-NH2, which presented low activity when compared to other analogs and was used here as a treated control) was performed using an Agilent Technologies 5500 AFM/SPM microscope that was in contact mode and a Nanosensors™ PPP-CONT probe (NanoSensors; PPP-Cont-20, PointProbe-Plus Silicon-SPM-Sensor). The material properties and dimensions of the AFM tips used in this experiment were as follows: resonance frequency of 6–21 kHz, force constant of 0.02–0.77 N m^−1, cantilever length of 450 ± 10 μm, cantilever width of 50 ± 7.5 μm, cantilever thickness of 2 ± 1 μm, tip height of 10–15 μm and resistivity of 0.01–0.02 Ω cm. The assays were performed in triplicate; image processing and roughness determinations were performed with the aid of the Gwyddion software (http://gwyddion.net/download.php). In order to compare the cell surface, we used two roughness parameters, the mean roughness (Ra) and the mean square of Z data (Rq), where N is the difference between the highest and the lowest points in the analyzed area. […]
The root mean square of the Z values Rq is the standard deviation of the N values in the area analyzed and is given by Equation 2: […]

[2] = tested on: Gram-positive bacteria, Gram-negative bacteria, and fungi; details: ref Torres et al. [9]; cited from earlier work

With “RLLSLIRKLIT-NH2 [[Arg]^1-Dec-NH2, synthetic analog of Dec-NH2]” the “IC50 against MCF-7” value [1] was 50.0 µM, the “effect on cell viability 2 h post-exposure” value ([1]; MCF-7, MTT) was “significant decreased cell viability” and the “inhibition of cancer cell growth” value ([1]; MCF-7, MTT) was “substantial inhibition”. For the same substance, the “MHC (maximal non-hemolytic concentration)” value (human red blood cells) was 25.00 µmol/L.
With “SFLSLIRKLIT-NH2 [[Phe]^2-Dec-NH2, synthetic analog of Dec-NH2]” the “IC50 against MCF-7” value [1] was 50.0 µM, the “inhibition of cell viability” value ([1]; MCF-7, MTT) was “inhibited cell viability the most” and the “inhibition of cancer cell growth” value ([1]; MCF-7, MTT) was “substantial inhibition”. The “MHC (maximal non-hemolytic concentration)” value (human red blood cells) was 3.12 µmol/L.
In the case of SLLPLIRKLIT-NH2 [[Pro]^4-Dec-NH2], the IC50 [1] is listed as 25 µM and the “MHC (maximal non-hemolytic concentration)” value (human red blood cells) is listed as 12.50 µmol/L.
For “SLLSLFRKLI-NH2 [[Phe]^6-Des[Thr]^11-Dec-NH2, synthetic analog of Dec-NH2]”, the “IC50 against MCF-7” value [1] was 50.0 µM, the “inhibition of cell viability” value ([1]; MCF-7, MTT) was “inhibited cell viability the most” and the “inhibition of cancer cell growth” value ([1]; MCF-7, MTT) was “substantial inhibition”. For the same substance, the “MHC (maximal non-hemolytic concentration)” value (human red blood cells) was 12.50 µmol/L.
In the case of SLLSLFRKLIT-NH2 [[Phe]^6-Dec-NH2], the IC50 [1] is listed as > 50 µM, the “effect on cell viability 2 h post-exposure” value ([1]; MCF-7, MTT) is listed as “did not show significant inhibition” and the “MHC (maximal non-hemolytic concentration)” value (human red blood cells) is listed as 3.12 µmol/L.
In the case of SLLSLIRKLIT-NH2 [Dec-NH2], the IC50 [1] is reported as 12.5 µM, the “LD50 / concentration achieving >50% of cancer cell lysis” value [1] is reported as 12.5 µmol/L and the “cytotoxicity against MCF-10A normal cells” value (MCF-10A normal cells) is reported as “no significant cytotoxicity”. For the same substance, the “MHC (maximal non-hemolytic concentration)” value (human red blood cells) was 1.56 µmol/L.
In the case of SLLSLIRKLIW-NH2 [[Trp]^11-Dec-NH2], the IC50 [1] is listed as 25 µM and the “MHC (maximal non-hemolytic concentration)” value (human red blood cells) is listed as 1.56 µmol/L.
For SLLSLIRKLLT-NH2 [[Leu]^10-Dec-NH2], the IC50 [1] was 12.5 µM, the “LD50 / concentration achieving >50% of cancer cell lysis” value [1] was 12.5 µmol/L and the “cytotoxicity against MCF-10A normal cells” value (MCF-10A normal cells) was “no significant cytotoxicity”. The “MHC (maximal non-hemolytic concentration)” value (human red blood cells) was 25.00 µmol/L.
With SLLSLIRLLIT-NH2 [[Leu]^8-Dec-NH2] the IC50 [1] was > 50 µM, the “activity against MCF-7 cells compared to the negative control” value ([1]; MCF-7, MTT) was “did not present significant activity” and the “cytotoxicity towards normal MCF-10A cells” value (MCF-10A normal cells; lowest concentration tested (25 μmol L^−1)) was “cytotoxic”. The “change of membrane roughness” value (MCF-7 cells) was “did not significantly change membrane roughness”, the “MHC (maximal non-hemolytic concentration)” value (human red blood cells) was 50.00 µmol/L and the “antimicrobial activity (order of magnitude)” value [2] was ~10^1 μmol L^−1.
